Measured values taken from patent US20050215531A1, “Use of edg receptor binding agents in cancer” (priority 2002, published 2005).

Tested on: HUVEC
Experiment: S1P-mediated HUVEC tube formation assay
Type: cell-based, human
Settings: branching points in 3 independent fields at 4× magnification
Description: For the tube formation assay, HUVEC from passage 2-8 are used and are never greater than 70% confluent before harvesting. Cells are prepared for the assay by washing with Herpes Balanced Saline Solution (HBSS from Clonetics) and then trypsinizing with Trypsin/EDTA (0.25 mg/ml, from Clonetics). After approximately 90% of the cells have lifted off the plate, an equal volume of Trypsin Neutralizing Solution (TNS from Clonetics) is added and the cells are collected into a conical tube containing at least 10 ml of EBM-2 (Clonetics)+0.1% BSA (Sigma) media Cells are centrifuged at 1000 rpm for 5 minutes and the supematant is removed and replaced with 5 ml of fresh EBM-2+0.1% BSA. Cells are counted using a hemacytometer and the volume of the cell suspension is adjusted to achieve a concentration of 500,000 cells/ml. Conical tubes are prepared with test compounds at 100 nM, and pertussin toxin (PTx) at 10 ng/ml in each, then 1 ml of the cell suspension is added to each tube. Tubes are then incubated for ½ hour at 37° C., 5% CO2. The migration assay is performed using Fluoro-Blok 24-Multiwell insert Plates coated with fibronectin (8 μm pore size, Falcon #351147) instead of the individual inserts in a 24-well plate. Cells and test compounds are prepared and pre-incubated as described above, then 100 μl is added to each approriate well in the Insert Plate. 300 μl of the EBM-2+2% charcoastripped media without S1P is added to the bottoms of the wells marked for no stimulation (−), and 300 μl of the media containing S1P (500 nM) is added to the bottoms of the wells marked for stimulation (+). The plate is then incubated for 4 hours at 37° C., 5% CO2. […]
After incubation, the plate is read on a Cytofluor II at an excitation of 485 nm and emission of 530 nm. The Fluoro-Blok coating in the inserts allows only the cells that have migrated to the bottom to be counted. […]
Tube formation is quantitated by counting the number of branching points (two independent cords connecting) in 3 independent fields at 4× magnification.

## CCCCCCCCc1ccc(CCC(N)(CO)COP(=O)(O)O)cc1 (centres unmarked) [Compound A-phosphate]
Treatment + S1P
  Branching Points: 14 ± 7
Treatment alone
  Branching Points: 48 ± 15
